Data as given in patent publication US8183263B2 (priority 2007, dated 2012).

system: HCV replicon; assay: HCV replicon replication assay (NPT level by captured ELISA); assay type: cell-based; conditions: Hepatitis C virus, 72 h; Huh-7 HCV replicon-containing cells, three days incubation; read-out: Activity (inhibition of HCV replicon replication)
Protocol: Compounds claimed herein are tested for the ability to inhibit viral replication of the Hepatitis C replicon in cultured cells in which the HCV replicon construct has been incorporated. The HCV replicon system was described by Bartenschlager, et. al (Science, 285, pp. 110-113 (1999)). The replicon system is predictive of in vivo anti-HCV activity; compounds that are active in humans uniformly evidence activity in the replicon assay.
In this assay HCV replicon containing cells are treated with different concentrations of the test compound to ascertain the ability of the test compound to suppress replication of the HCV replicon. As a positive control, HCV replicon-containing cells are treated with different concentrations of interferon alpha, a known inhibitor of HCV replication. The replicon assay system includes Neomycin Phosphotransferase (NPT) as a component of the replicon itself in order to detect the transcription of replicon gene products in the host cell. Cells in which the HCV replicon is actively replicating have high levels of NPT; the level of NPT is proportional to HCV replication. […] The NPT level of each sample is measured using a captured ELISA.
A protocol for testing compounds for the ability to inhibit viral replication of the Hepatitis C replicon cultured cells in which the replicon construct has been incorporated, follows.
The HCV replicon contains, 5′-3′, the HCV-IRES, the neomycin phosphotransferase (neo) gene, the IRES of encephalomyocarditis virus, which directs translation of HCV sequences NS3 to NS5B, and the 3′-NTR. The sequence of the HCV replicon has been deposited in GenBank (Accession no. AJ242652).
The replicon is transfected into Huh-7 cells using standard methods such as electroporation.
The equipment and materials include, but are not limited to, Huh-7 HCV replicon-containing cells, maintenance media (DMEM (Dulbecco's modified Eagle media) supplemented with 10% FBS, L-glutamine, non-essential amino acids, penicillin (100 units/ml), streptomycin (100 micrograms/ml), and 500 micrograms/ml of Geneticin (G418), screening media (DMEM supplemented with 10% FBS, L-glutamine, non-essential amino acids, penicillin (100 units/ml) and streptomycin (100 micrograms/ml)), 96 well tissue culture plates (flat bottom), 96 well plates (U bottom for drug dilution), Interferon alpha for positive control, fixation reagent (such as methanol: acetone), primary antibody (rabbit anti-NPTII), secondary antibody: Eu—N1 1, and enhancement solution.
HCV replicon-containing cells are rinsed with once PBS once; 2 mls of trypsin are then added. Cells are incubated at 37° C. in a 5% CO2 incubator for 3-5 minutes. 10 mls of complete medium is added to stop the reaction. Cells are blown gently, put into a 15 ml tube, and spun at 1200 rpm for four minutes. The trypsin/medium solution is removed and 5 mls of medium (500 ml DMEM (high glucose)) from BRL catalog #12430-054; 50 mls 10% FBS, 5% Geneticin G418 (50 mg/ml, BRL catalog #10131-035), 5 ml MEM non-essential amino acids (100×BRL #11140-050) and 5 ml pen-strep (BRL #15140-148) is added. The cells and media are mixed carefully
Cells are plated with screening medium (500 ml DMEM (BRL #21063-029), 50 ml FBS (BRL #10082-147) and 5 ml MEM non-essential amino acid (BRL #11140-050) at 6000-7500 cells/100 μl/well of 96 well plate (6-7.5×10^5 cells/10 ml/plate). Plates are placed into 37° C. 5% CO2 incubator overnight.
The following morning, drugs (test compounds or interferon alpha) are diluted in 96 well U bottom plates with media or DMSO/media, depending on the final concentration chosen for screening. Generally for 6 concentrations of each test compounds ranging from 10 micromolar to 0.03 micromolar are applied. 100 μl of the test compound dilution is placed in wells of the 96 well plate containing the HCV replicon cells. Media without drug is added to some wells as a negative controls. DMSO is known to affect cell growth. […]

| Structure (SMILES) | EC50 |
| --- | --- |
| CCCCCCCC(C)(C)Oc1ccc(Nc2nc(-c3cccnc3)c(F)s2)cc1C(F)(F)F [Cmp 221, 5-fluoro-N-(4-(2-methylnonan-2-yloxy)-3-(trifluoromethyl)phenyl)-4-(pyridin-3-yl)thiazol-2-amine] | < 1000 nM |
| FC(F)(F)c1ccc(Nc2nc(-c3cccnc3)cs2)cc1Oc1ccccc1 [Cmp 102] | 1000 to 10000 nM |
| CCCCCCCCc1ccc(Nc2nc(-c3ccc(OC(=O)[C@@H](N)C(C)C)nc3)cs2)cc1C(F)(F)F [Cmp 135, (S)-5-(2-(4-octyl-3-(trifluoromethyl)phenylamino)thiazol-4-yl)pyridin-2-yl 2-amino-3-methylbutanoate] | 1000 to 10000 nM |
| CCCCCCCCOc1ccc(Nc2nc(-c3cccnc3)c(F)s2)cc1C(C)=O [Cmp 149, 1-(5-(5-fluoro-4-(pyridin-3-yl)thiazol-2-ylamino)-2-(octyloxy)phenyl)ethanone] | < 1000 nM |
| COc1ncc(-c2nc(Nc3ccc(Oc4ccc(C#N)cc4)c(C(F)(F)F)c3)sc2F)cn1 [Cmp 96, 4-(4-(5-fluoro-4-(2-methoxypyrimidin-5-yl)thiazol-2-ylamino)-2-(trifluoromethyl)phenoxy)benzonitrile] | < 1000 nM |
| FC(F)(F)c1cc(Nc2nc(-c3cccnc3)cs2)ccc1OCCCCc1cnc2ccccc2c1 [Cmp 145, 4-(pyridin-3-yl)-N-(4-(4-(quinolin-3-yl)butoxy)-3-(trifluoromethyl)phenyl)thiazol-2-amine] | < 1000 nM |
| CCCCCCCCc1cc2ccc(Nc3nc(-c4ccc(C)nc4)cs3)cc2o1 [Cmp 115, 4-(6-methylpyridin-3-yl)-N-(2-octylbenzofuran-6-yl)thiazol-2-amine] | < 1000 nM |
| CCCCCCCCC1Cc2ccc(Nc3nc(-c4ccc(C)nc4)cs3)cc2O1 (stereo not drawn) [Cmp 124, 4-(6-methylpyridin-3-yl)-N-(2-octyl-2,3-dihydrobenzofuran-6-yl)thiazol-2-amine] | < 1000 nM |
| CCCCCCC[C@@H](C)Oc1ccc(Nc2nc(-c3cccnc3)c(F)s2)cc1C(F)(F)F [Cmp 233, (R)-5-fluoro-N-(4-(nonan-2-yloxy)-3-(trifluoromethyl)phenyl)-4-(pyridin-3-yl)thiazol-2-amine] | < 1000 nM |
| CCc1ccc(Oc2ccc(Nc3nc(-c4cccnc4)cs3)cc2C(F)(F)F)cc1 [Cmp 49, N-(4-(4-ethylphenoxy)-3-(trifluoromethyl)phenyl)-4-(pyridin-3-yl)thiazol-2-amine] | < 1000 nM |
| CCCCCc1nc2ccc(Nc3nc(-c4cccnc4)c(F)s3)cc2o1 [Cmp 67, N-(5-fluoro-4-(pyridin-3-yl)thiazol-2-yl)-2-pentylbenzo[d]oxazol-6-amine] | < 1000 nM |
| CCCOCCCCCc1ccc(Nc2nc(-c3cccnc3)c(F)s2)cc1C(F)(F)F [Cmp 192, 5-fluoro-N-(4-(5-propoxypentyl)-3-(trifluoromethyl)phenyl)-4-(pyridin-3-yl)thiazol-2-amine] | < 1000 nM |
| CCCCCCCCc1cc2ccc(Nc3nc(-c4cccnc4)c(F)s3)cc2o1 [Cmp 133, 5-fluoro-N-(2-octylbenzofuran-6-yl)-4-(pyridin-3-yl)thiazol-2-amine] | < 1000 nM |
| CC(=O)c1cc(Nc2nc(-c3cccnc3)c(F)s2)ccc1Oc1ccc(Cl)cc1 [Cmp 130, 1-(2-(4-chlorophenoxy)-5-(5-fluoro-4-(pyridin-3-yl)thiazol-2-ylamino)phenyl)ethanone] | < 1000 nM |
| CCCCOCCCCc1ccc(Nc2nc(-c3cccnc3)c(F)s2)cc1C(F)(F)F [Cmp 234, N-(4-(4-butoxybutyl)-3-(trifluoromethyl)phenyl)-5-fluoro-4-(pyridin-3-yl)thiazol-2-amine] | < 1000 nM |
| CCCCCCCCc1ccc(Nc2nc(-c3ccc(F)nc3)c(F)s2)cc1C(F)(F)F [Cmp 174, 5-fluoro-4-(6-fluoropyridin-3-yl)-N-(4-octyl-3-(trifluoromethyl)phenyl)thiazol-2-amine] | < 1000 nM |
| CCc1ccc(Oc2ccc(Nc3nc(-c4cccnc4)c(F)s3)cc2C(F)(F)F)cc1 [Cmp 98, N-(4-(4-ethylphenoxy)-3-(trifluoromethyl)phenyl)-5-fluoro-4-(pyridin-3-yl)thiazol-2-amine] | < 1000 nM |

| Structure (SMILES) | EC50 |
| --- | --- |
| CCc1ccc(Oc2ccc(Nc3nc(-c4cccnc4)cs3)cc2C(C)=O)cc1 | < 1000 nM |
| FC(F)(F)c1cc(Nc2nc(-c3cccnc3)cs2)ccc1Oc1ccc(Cl)cc1 [Cmp 50, N-(4-(4-chlorophenoxy)-3-(trifluoromethyl)phenyl)-4-(pyridin-3-yl)thiazol-2-amine] | < 1000 nM |
| CCCCCCCCOc1cc(Nc2nc(-c3cccnc3)c(F)s2)ccc1C [Cmp 28, 5-fluoro-N-(4-methyl-3-(octyloxy)phenyl)-4-(pyridin-3-yl)thiazol-2-amine] | < 1000 nM |
| CCCCCCC[C@H](C)Oc1ccc(Nc2nc(-c3cccnc3)c(F)s2)cc1C(F)(F)F [Cmp 232, (S)-5-fluoro-N-(4-(nonan-2-yloxy)-3-(trifluoromethyl)phenyl)-4-(pyridin-3-yl)thiazol-2-amine] | < 1000 nM |
| Cc1ccc(Nc2nc(-c3cccnc3)c(F)s2)cc1OCCOc1ccccc1 [Cmp 58, 5-fluoro-N-(4-methyl-3-(2-phenoxyethoxy)phenyl)-4-(pyridin-3-yl)thiazol-2-amine] | < 1000 nM |
| CCCCCOc1cc(Nc2nc(-c3cccnc3)c(F)s2)ccc1C#N [Cmp 30, -(5-fluoro-4-(pyridin-3-yl)thiazol-2-ylamino)-2-(pentyloxy)benzonitrile] | < 1000 nM |
| CCCCCCCCc1ccc(Nc2nc(-c3ccc(O)nc3)cs2)cc1C(F)(F)F [Cmp 100, 5-(2-(4-octyl-3-(trifluoromethyl)phenylamino)thiazol-4-yl)pyridin-2-ol] | < 1000 nM |
| CCCCCOc1cc(Nc2nc(-c3cccnc3)c(F)s2)ccc1C [Cmp 29] | < 1000 nM |
| Cc1ccc(Nc2nc(-c3ccc(F)cc3)cs2)cc1OCC1CCCCC1 [Cmp 42, N-(3-(cyclohexylmethoxy)-4-methylphenyl)-4-(4-fluorophenyl)thiazol-2-amine] | < 1000 nM |
| Cc1ccc(CCCCCc2ccc(Nc3nc(-c4cccnc4)cs3)cc2C(F)(F)F)cc1 [Cmp 73, 4-(pyridin-3-yl)-N-(4-(5-p-tolylpentyl)-3-(trifluoromethyl)phenyl)thiazol-2-amine] | < 1000 nM |
| c1ccc(CCc2cc3cc(Nc4nc(-c5cccnc5)cs4)ccc3o2)cc1 [Cmp 153, N-(2-phenethylbenzofuran-5-yl)-4-(pyridin-3-yl)thiazol-2-amine] | < 1000 nM |
| CCCCCCCCOc1ccc(Nc2ncc(-c3cccnc3)s2)cc1C(F)(F)F [Cmp 164, N-(4-(octyloxy)-3-(trifluoromethyl)phenyl)-5-(pyridin-3-yl)thiazol-2-amine] | < 1000 nM |
| CCCCCc1nc2cc(Nc3nc(-c4cnc(OC)nc4)cs3)ccc2o1 [Cmp 55, N-(4-(2-methoxypyrimidin-5-yl)thiazol-2-yl)-2-pentylbenzo[d]oxazol-5-amine] | < 1000 nM |
| CCCCCOc1cc(Nc2nc(-c3cccnc3)cs2)ccc1C(F)(F)F [Cmp 69, N-(3-(pentyloxy)-4-(trifluoromethyl)phenyl)-4-(pyridin-3-yl)thiazol-2-amine] | < 1000 nM |
| FC(F)(F)c1cc(Nc2nc(-c3cccnc3)cs2)ccc1OC1Cc2ccccc2C1 [Cmp 171, N-(4-(2,3-dihydro-1H-inden-2-yloxy)-3-(trifluoromethyl)phenyl)-4-(pyridin-3-yl)thiazol-2-amine] | < 1000 nM |
| CCCCCOCCCc1ccc(Nc2nc(-c3cccnc3)c(F)s2)cc1C(F)(F)F [Cmp 220, 5-fluoro-N-(4-(3-(pentyloxy)propyl)-3-(trifluoromethyl)phenyl)-4-(pyridin-3-yl)thiazol-2-amine] | < 1000 nM |
